Where two headings read alike, the source gives them in different places. Values belong to the compound of their own block, whether it stands above or below them. Where a SMILES comes first, the peptide text is derived from it.
Tests used:
Octn1 = target: T1, Octn1 (Mus musculus, UniProt Q9Z306); assay: Uptake of [3H]ergothioneine by mice kidney slices; format: in vitro ADME; settings: for inhibition of [3H]ergothioneine uptake by kidney slices at low inhibitor concentration: 0.5 mM carnitine, 0.1 mM cimetidine; for effect on Na+-dependent uptake of [3H]ergothioneine into mice kidney slices: Fig. 3A
T1 construct: between native Octn1 in kidney tissues and transporter-gene transfected cells; from tissue; host or cells: mouse kidney slices (0.3 mm; male ICR mice, or C57BL/6J-backcrossed wild-type and Octn1-/- mice)
T1 sequence (Q9Z306 1-553): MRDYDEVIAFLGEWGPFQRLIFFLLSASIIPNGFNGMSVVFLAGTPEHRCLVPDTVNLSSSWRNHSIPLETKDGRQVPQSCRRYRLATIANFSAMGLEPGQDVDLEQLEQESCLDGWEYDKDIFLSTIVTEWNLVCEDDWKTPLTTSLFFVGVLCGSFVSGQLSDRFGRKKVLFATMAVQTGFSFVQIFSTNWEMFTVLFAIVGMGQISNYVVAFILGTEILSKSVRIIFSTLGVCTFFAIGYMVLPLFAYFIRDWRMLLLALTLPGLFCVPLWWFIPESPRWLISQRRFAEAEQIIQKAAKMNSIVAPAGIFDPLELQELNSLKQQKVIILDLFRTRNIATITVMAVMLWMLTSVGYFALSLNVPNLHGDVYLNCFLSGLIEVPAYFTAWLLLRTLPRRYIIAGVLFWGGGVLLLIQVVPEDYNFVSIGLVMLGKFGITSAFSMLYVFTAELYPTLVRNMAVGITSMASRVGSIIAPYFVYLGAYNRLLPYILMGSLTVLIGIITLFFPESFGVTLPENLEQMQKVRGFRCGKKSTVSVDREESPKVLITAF
Experimental: (§1) Uptake studies using mouse kidney slices were carried out as described in a previous report after slight modifications. The slices of whole kidneys were prepared with a microslicer (Zero 1; Dosaka EM, Kyoto, Japan), and the renal pelvis portion was removed. Prepared slices (0.3 mm thick) of whole kidneys from male mice were immediately put in ice-cold oxygenated transport buffer (130 mM NaCl, 4.8 mM KCl, 1.2 mM CaCl2, 1.2 mM MgSO4, 1.2 mM KH2PO4 and 25 mM HEPES, adjusted to pH 7.4). When uptake was conducted in Na^+-free condition, NaCl was replaced with N-methyl-D-glucamine (NMG) in transport buffer. Three or four slices from one mouse, weighing each slice 2 to 10 mg, were randomly selected and then pre-incubated in a 24-well plate with 1.0 ml of oxygenated transport buffer in each well at 37 °C for 5 min. After pre-incubation, the kidney slices were put into transport buffer containing radiolabeled substrates with or without inhibitors to initiate the uptake reaction. The uptake reactions were carried out at 37 °C for an appropriate time, and then each slice was rapidly removed from the transport buffer, washed twice in ice-cold transport buffer, blotted on filter paper and weighed. For measurement of radiolabeled compounds, the slices were dissolved in 0.15 ml of 1 N NaOH. Then, the lysate was neutralized with HCl. The apparent uptake of [^14C]inulin was evaluated in independent experiments (n = 3) to estimate the volume of water adhering to the kidney slices after an incubation. […] Viability of the isolated kidney slices was assessed as described in the supplemental file.
Radioactivity was quantified with a liquid scintillation counter (Aloka, Tokyo, Japan). To calculate kinetic parameters for carrier-mediated uptake of test substrates, uptake rate was fitted to eq. (1) by means of a nonlinear least-squares regression analysis using MULTI program[36]:1 v=Vmax×s/(Km+s) where v, s, K m, and V max are the uptake rate of substrate, the substrate concentration in the medium, the apparent Michaelis-Menten constant, and the maximal uptake rate, respectively.
(§2) The half-inhibitory concentration (IC 50) values of inhibitors were obtained by examining their inhibitory effects on uptake of test substrates according to the following equation (2):2 %ofcontrol=IC50/(IC50+I) where % of control represents inhibition rate in the presence of inhibitors and I is inhibitor concentration.

Octn2 = target: T2, Octn2 (Mus musculus, UniProt Q9Z0E8); assay: Uptake of [3H]carnitine by mice kidney slices; format: in vitro ADME
T2 construct: from tissue; host or cells: mouse kidney slices (male ICR mice)
T2 sequence (Q9Z0E8 1-557): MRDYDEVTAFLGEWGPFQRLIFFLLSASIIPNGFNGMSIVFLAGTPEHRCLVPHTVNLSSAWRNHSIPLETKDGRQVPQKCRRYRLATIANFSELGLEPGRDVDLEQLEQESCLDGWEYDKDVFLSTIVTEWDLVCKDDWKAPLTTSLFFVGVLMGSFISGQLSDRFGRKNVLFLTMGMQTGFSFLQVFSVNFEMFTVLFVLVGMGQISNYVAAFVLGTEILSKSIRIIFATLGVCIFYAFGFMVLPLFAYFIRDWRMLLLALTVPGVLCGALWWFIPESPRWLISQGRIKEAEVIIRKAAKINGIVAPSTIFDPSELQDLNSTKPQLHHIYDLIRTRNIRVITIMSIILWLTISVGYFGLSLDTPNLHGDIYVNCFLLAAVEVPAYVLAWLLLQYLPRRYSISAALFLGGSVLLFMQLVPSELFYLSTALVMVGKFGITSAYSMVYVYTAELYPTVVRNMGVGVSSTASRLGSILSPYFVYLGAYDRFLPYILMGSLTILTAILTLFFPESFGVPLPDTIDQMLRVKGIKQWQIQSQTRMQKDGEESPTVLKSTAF
Experimental: as §1, with “The uptake reactions were carried out at 37 °C for an appropriate time, and then each slice was rapidly removed from the transport buffer, washed twice in ice-cold transport buffer, blotted on filter paper and weighed. For measurement of radiolabeled compounds, the slices were dissolved in 0.15 ml of 1 N NaOH. Then, the lysate was neutralized with HCl.” left out, “file. […]” for “file.”

Mouse Octn2 [1] = target: T3, Mouse Octn2 (Mus musculus, UniProt Q9Z0E8); design: method as in PMID 11010964; settings: cited from earlier work
T3 construct: expressed in transfected cells; host or cells: HEK293
T3 sequence (Q9Z0E8 1-557): T2 sequence (Q9Z0E8 1-557)

Sglt2 = test system: Sglt2; design: method as in PMID 22139434; settings: cited from earlier work
Sglt1/2 = assay: Uptake of [14C]αMG by mice kidney slices; format: in vitro ADME; settings: for effect on [14C]αMG uptake by kidney slices, inhibitor alone: 30 mM galactose, D-glucose free
Experimental: as §1, §2

Pept1/2 = assay: Uptake of [3H]Gly-Sar by mice kidney slices; format: in vitro ADME; settings: for effect on uptake of [3H]Gly-Sar by mice kidney slices: 5 mM Gly-Leu, 100 μM cephadroxil, 37 °C
Experimental: Uptake studies using mouse kidney slices were carried out as described in a previous report after slight modifications. The slices of whole kidneys were prepared with a microslicer (Zero 1; Dosaka EM, Kyoto, Japan), and the renal pelvis portion was removed. Prepared slices (0.3 mm thick) of whole kidneys from male mice were immediately put in ice-cold oxygenated transport buffer (130 mM NaCl, 4.8 mM KCl, 1.2 mM CaCl2, 1.2 mM MgSO4, 1.2 mM KH2PO4 and 25 mM HEPES, adjusted to pH 7.4). When uptake was conducted in Na^+-free condition, NaCl was replaced with N-methyl-D-glucamine (NMG) in transport buffer. Three or four slices from one mouse, weighing each slice 2 to 10 mg, were randomly selected and then pre-incubated in a 24-well plate with 1.0 ml of oxygenated transport buffer in each well at 37 °C for 5 min. After pre-incubation, the kidney slices were put into transport buffer containing radiolabeled substrates with or without inhibitors to initiate the uptake reaction. The uptake reactions were carried out at 37 °C for an appropriate time, and then each slice was rapidly removed from the transport buffer, washed twice in ice-cold transport buffer, blotted on filter paper and weighed. For measurement of radiolabeled compounds, the slices were dissolved in 0.15 ml of 1 N NaOH. Then, the lysate was neutralized with HCl. The apparent uptake of [^14C]inulin was evaluated in independent experiments (n = 3) to estimate the volume of water adhering to the kidney slices after an incubation. In this study, observed extracellular adhered water space was 0.128 ± 0.004 μL/5 min/mg kidney. Viability of the isolated kidney slices was assessed as described in the supplemental file.
Radioactivity was quantified with a liquid scintillation counter (Aloka, Tokyo, Japan). To calculate kinetic parameters for carrier-mediated uptake of test substrates, uptake rate was fitted to eq. […]

Mouse Octn1 = Mouse Octn1 (Mus musculus, UniProt Q9Z306); settings: Octn1-expressing HEK293 cells, previous report, cited from earlier work
PEPT2 = test system: PEPT2; design: method as in PMID 15862787; settings: cited from earlier work
PEPT1 = test system: PEPT1; design: method as in PMID 11004485; settings: cited from earlier work
Mate1 = settings: read-out: IC 50 for Mate1; cited from earlier work
Oct2 = settings: read-out: IC 50 for Oct2; cited from earlier work
Mouse Octn2 [2] = target: T3, Mouse Octn2; assay: Uptake of [3H]carnitine by Octn2-expressing HEK293 cells; format: cell-based; settings: [3H]carnitine 1.0 μM, 15 sec, mock subtracted, read-out: IC 50 for carnitine uptake, Expression Model
[3] = [3H]ergothioneine 1.0 μM, 3 min

inhibition of [3H]ergothioneine uptake by kidney slices at low inhibitor concentration (Octn1): no significant inhibition | effect on Na+-dependent uptake of [3H]ergothioneine into mice kidney slices (Octn1; [3]): significantly reduced | uptake in the presence of Na+ versus absence of Na+ (Octn2; [3H]carnitine 1.3 nM, pH 7.4, 37 °C, 1-20 min): significantly higher
Structure (SMILES): C[N+](C)(C)CC(O)CC(=O)[O-] (stereo not shown) [carnitine]
K m value of carnitine for Octn2 (Mouse Octn2 [1]): 22.1 µM

Structure (SMILES): O=C[C@H](O)[C@@H](O)[C@@H](O)[C@H](O)CO [galactose, D-galactose]
effect on [14C]αMG uptake by kidney slices, inhibitor alone (Sglt1/2; 50 nM dapagliflozin, 5 min): decreased

Structure (SMILES): CCOc1ccc(Cc2cc([C@@H]3O[C@H](CO)[C@@H](O)[C@H](O)[C@H]3O)ccc2Cl)cc1 [dapagliflozin]
IC50 (Sglt2; read-out: IC 50 of Sglt2 inhibitor): […] | effect on [14C]αMG uptake with 30 mM galactose or 1 mM D-glucose simultaneously added (Sglt1/2; 50 nM dapagliflozin, 5 min): decreased | effect on αMG uptake in the presence of 10 mM D-glucose (Sglt1/2; 10 mM D-glucose, Sglt1 and Sglt2 saturated): no further decrease | effect on [14C]αMG uptake by kidney slices, inhibitor alone (Sglt1/2; 50 nM dapagliflozin, 5 min): not affected

Structure (SMILES): CC(C)CC(NC(=O)CN)C(=O)O (stereo not shown) [Gly-Leu, glycyl-leucine]
effect on uptake of [3H]Gly-Sar by mice kidney slices (Pept1/2): decreased

K m in kidney slices relative to K m in Octn1-expressing HEK293 cells (Octn1; 81.5 μM versus 4.68 μM): 17 times | uptake in the presence of Na+ versus absence of Na+ (Octn1; [3H]ergothioneine 1.0 μM, pH 7.4, 37 °C, 1-20 min): significantly higher | K m of ergothioneine uptake, Mice Kidney Slice (Octn1; pH 7.4, 37 °C, 3 min, 1-250 μM): 69.8 ± 27.6 µM
Structure (SMILES): C[N+](C)(C)[C@@H](Cc1c[nH]c(=S)[nH]1)C(=O)[O-] [Ergothioneine, ergothioneine]
uptake of [3H]ergothioneine in 1 hr after removal of kidney compared with 25 min (Octn1; slice viability, pre-incubation pH 7.4, 37 °C): 69.0 ± 6.6% | K m of ergothioneine, Expression Model (Mouse Octn1): 4.68[22] µM | K m of ergothioneine, Expression Model (Mouse Octn1; listed as ergothioneine): 4.68 µM

Structure (SMILES): CN(CC(=O)O)C(=O)CN [Gly-Sar, glycylsarcosine] (HELM PEPTIDE1{G.[Sar]}$$$$V2.0)
K m of Gly-Sar, Expression Model (PEPT2) (PEPT2): 79.5 (PEPT2)[31] µM | K m of Gly-Sar, Expression Model (PEPT2) (PEPT2; listed as [^3H]Gly-Sar): 79.5 µM | K m of Gly-Sar uptake, Mice Kidney Slice (Pept1/2; pH 7.4, 37 °C, 5 min, 10-300 μM): 161 ± 17 µM | K m of Gly-Sar, Expression Model (PEPT1) (PEPT1): 600 (PEPT1)[37] µM

inhibition of [3H]ergothioneine uptake by kidney slices at low inhibitor concentration (Octn1): no significant inhibition | effect on Na+-dependent uptake of [3H]ergothioneine into mice kidney slices (Octn1; [3]): significantly reduced
Structure (SMILES): CN/C(=N/CCSCc1nc[nH]c1C)NC#N [Cimetidine]
IC50 (Mate1): 16.3 µM | IC50 (Oct2): 8 µM

Structure (SMILES): CC1=C(C(=O)O)N2C(=O)[C@@H](NC(=O)[C@H](N)c3ccc(O)cc3)[C@H]2SC1 [cephadroxil]
effect on uptake of [3H]Gly-Sar by mice kidney slices (Pept1/2): decreased

IC50 (Octn2): 363 ± 142 µM | IC50 (Mouse Octn2 [2]): 94.1 ± 8.9 µM
Structure (SMILES): COc1ccc(CCN(C)CCCC(C#N)(c2ccc(OC)c(OC)c2)C(C)C)cc1OC (stereo not shown) [Verapamil]

— publication PMC5634478, “Usefulness of kidney slices for functional analysis of apical reabsorptive transporters” (Scientific Reports, 2017)
